{
  "source": "patent US8258178B2",
  "about": "“Agents for preventing attachment of barnacle consisting of organic solvent extracts of red alga Laurencia sp. and compounds isolated therefrom” (Central Research Institute of Electric Power Industry, priority 2007, dated 2012)",
  "key": {"[1]": {"test_system": "cypris larvae of Amphibalanus amphitrite", "assay": "whole plant or invertebrate", "assay_type": "in vivo", "details": "for EC50: Amphibalanus amphitrite, 48 h, read-out: EC50 of attachment•metamorphosis of cypris larvae", "procedure": "(§1) Adult samples of Amphibalanus amphitrite collected from Lake Hamanako, Shizuoka-ken in the breeding season (May to November in Hamanakako) were subject to drying stimulus for about 12 hours (drying stimulus refers to taking out barnacles out of the breeding water and let them dry), and then they were put into a water bath, thereby allowing eggs to hatch into nauplius larvae (if the adults are not in a breeding season, they are subject to food satiation breeding for about two weeks at a water temperature of 20° C. to 25° C., and after subjecting to drying stimulus for about 12 hours, they are housed in a water bath to allow eggs to hatch into nauplius larvae). […] At 5th day of breeding, the nauplius larvae metamorphosed into cypris larvae, which were collected using light or the like and refrigerated (4° C.) for two days, and then used for attachment•metamorphosis inhibition tests.\n(§2) Into a 24-well multi plate made of polystyrene (Corning, Inc.) was put an ethanol solution in which a methanol extract of red algae laurencia sp. of the present invention or the compound of the present invention was dissolved, and allowed to dry, followed by charging of 2 mL filtered seawater. Six individual cypris larvae of Amphibalanus amphitrite were put into each well and bred at 25° C. for two to five days, and the number of individuals that metamorphosed from cypris larvae into barnacle immatures while attaching to the plate surface, the number of individuals not attached thereto and still swimming as cypris larvae, and the number of dead individuals were counted under a stereoscopic microscope. The tests were conducted using four wells each for a same concentration of the compound of the present invention, and the tests were repeated three or more times. […] Furthermore, the concentration at which the ratio of the number of attaching•metamorphosing individuals to the number of all the subject individuals after 2 days is one-half in comparison with the case not having the compounds of the present invention, was represented by EC50. Concentrations (μg/ml) were represented by the value obtained by dividing the amount of the methanol extract of red algae laurencia sp. (μg) or the amount of the compound (μg) added per well by 2 mL of filtered seawater added per well."}, "[2]": {"assay": "in vivo", "assay_type": "in vivo", "details": "Amphibalanus amphitrite (barnacle, cypris larvae), in vivo; concentration at which dead individuals after 5 days account for 50% of all individuals; read-out: LC50 (toxicity to larvae)", "procedure": "as §1, §2"}, "[3]": {"test_system": "barnacle", "details": "reported in Non-Patent Documents 1 and 2; cited from earlier work"}, "[4]": {"details": "Non-Patent Document 7; cited from earlier work"}, "[5]": {"details": "after 2 days, concentration at which ratio of attaching•metamorphosing individuals is one-half of the case without compound, 25° C., 24-well plate, 2 mL filtered seawater"}},
  "note": "Like-named read-outs stand apart in the source and are kept apart here.",
  "data": [
    {"smiles": "CC[C@@H]1[C@@H]2[C@H]3OC(C=C=CBr)C[C@H]3O[C@]2(O)[C@@H](Br)C[C@H]1Br", "note": "(stereo partly drawn) [Hachijojimallene A]", "values": [
      {"measurement": "EC50 of attachment•metamorphosis of cypris larvae", "setting": "[1]; [5]", "value": 0.15, "unit": "µg/mL"},
      {"measurement": "LC50 (toxicity to larvae)", "setting": "[1]; concentration at which dead individuals after 5 days account for 50% of all individuals", "value": 9.8, "unit": "µg/mL"}
    ]},
    {"smiles": "CC(C)=CCC[C@@](C)(O)[C@@H](O)CC[C@](C)(O)[C@H]1CC[C@H]2O[C@@H]([C@]3(C)CC[C@@H](Br)C(C)(C)O3)CC[C@]2(C)O1", "note": "[Magireol A]", "values": [
      {"measurement": "EC50", "setting": "[1]", "value": 0.3, "unit": "µg/mL"},
      {"measurement": "LC50 at 5 days", "setting": "[2]", "value": 14.4, "unit": "µg/mL"}
    ]},
    {"smiles": "C#C/C=C/C[C@@H](OC(C)=O)[C@H]1C/C=C\\C[C@H](Br)[C@@H](CC)O1", "note": "[Laurencin]", "values": [
      {"measurement": "EC50 of attachment•metamorphosis of cypris larvae", "setting": "[1]; [5]", "value": 0.23, "unit": "µg/mL"},
      {"measurement": "toxicity to larvae", "setting": "[1]; at 100 μg/mL", "value": "no toxicity at all"}
    ]},
    {"smiles": "C=C1C[C@H](O)[C@H](Br)C(C)(C)[C@@]12CCC(C)=C(Cl)C2", "note": "[elatol]", "values": [
      {"measurement": "barnacle attachment inhibitory activity", "setting": "[3]", "value": "have a barnacle attachment inhibitory activity"}
    ]},
    {"smiles": "Cc1cc(O)c([C@]2(C)CC[C@@H]3C[C@@]32C)cc1Br", "note": "[laurinterol]", "values": [
      {"measurement": "barnacle attachment inhibitory activity", "setting": "[3]", "value": "possess a barnacle attachment inhibitory activity"}
    ]},
    {"smiles": "CC/C(Br)=C\\C=C\\[C@@H](O)[C@H](Br)[C@@H]1O[C@@H](C=C=CBr)C[C@@H]1O", "note": "[Omaezallene]", "values": [
      {"measurement": "EC50", "setting": "[1]; [5]", "value": 0.22, "unit": "µg/mL"},
      {"measurement": "LC50 at 5 days", "setting": "[2]", "value": 3.4, "unit": "µg/mL"}
    ]},
    {"smiles": "C=C1C[C@H](O)[C@H](Br)C(C)(C)[C@]12CC=C(C)CC2", "note": "[deschloroelatol]", "values": [
      {"measurement": "barnacle attachment inhibitory activity", "setting": "[3]", "value": "have a barnacle attachment inhibitory activity"}
    ]},
    {"smiles": "C=C1[C@@H](C)CC[C@@]1(C)c1cc(Br)c(C)cc1O", "note": "[isolaurinterol]", "values": [
      {"measurement": "barnacle attachment inhibitory activity", "setting": "[3]", "value": "possess a barnacle attachment inhibitory activity"}
    ]},
    {"smiles": "CC(C)(O)[C@H]1CC[C@](C)([C@@H](O)CC[C@](C)(O)[C@H]2CC[C@H]3O[C@@H]([C@]4(C)CC[C@@H](Br)C(C)(C)O4)CC[C@]3(C)O2)O1", "note": "[Thyrsiferol]", "values": [
      {"measurement": "cytotoxicity", "setting": "[4]", "value": "known to have cytotoxicity"},
      {"measurement": "EC50", "setting": "[1]", "value": 0.11, "unit": "µg/mL"},
      {"measurement": "LC50 at 5 days", "setting": "[2]", "value": 2.5, "unit": "µg/mL"}
    ]}
  ]
}
